Laboratory results reported in patent US9718803B2 (AMGEN INC., priority 2010, dated 2017).
Read-outs that look alike come from different tables or passages of the source.

Target: PDE10 enzyme
Assay: MPDE10A7 enzyme activity and inhibition (IMAP TR-FRET assay)
Format: biochemical
Method: MPDE10A7 Enzyme Activity and Inhibition
Enzyme Activity. An IMAP TR-FRET assay was used to analyze the enzyme activity (Molecular Devices Corp., Sunnyvale Calif.). 5 L of serial diluted PDE10A (BPS Bioscience, San Diego, Calif.) or tissue homogenate was incubated with equal volumes of diluted fluorescein labeled cAMP or cGMP for 60 min in 384-well polystyrene assay plates (Corning, Corning, N.Y.) at room temperature. After incubation, the reaction was stopped by adding 60 L of diluted binding reagents and was incubated for 3 hours to overnight at room temperature. The plates were read on an Envision (Perkin Elmer, Waltham, Mass.) for time resolved fluorescence resonance energy transfer. The data were analyzed with GraphPad Prism (La Jolla, Calif.).
Enzyme Inhibition. To check the inhibition profile, 5 μL of serial diluted compounds were incubated with 5 μL of diluted PDE10 enzyme (BPS Bioscience, San Diego, Calif.) or tissue homogenate in a 384-well polystyrene assay plate (Corning, Corning, N.Y.) for 30 min at room temperature. […] The reaction was stopped by adding 60 μL of diluted binding reagents and plates were read on an Envision (Perkin Elmer, Waltham, Mass.) for time resolved fluorescence resonance energy transfer. The data were analyzed with GraphPad Prism (La Jolla, Calif.).

O=C(O)c1cccc(-c2nccnc2C2CN(c3ccc4ccccc4n3)C2)c1 [Example 33.1, Lithium 3-(3-(1-(Quinolin-2-Yl)Azetidin-3-Yl)Pyrazin-2-Yl)Benzoate]
IC50 (running text of examples, fluorescein labeled cAMP or cGMP substrate, read-out: PDE10 IC50): 1.6 nM

N#Cc1ccc(-c2nccnc2C2CN(c3ccc4ccccc4n3)C2)cc1 [Example 5.8, 4-(3-(1-(quinolin-2-yl)azetidin-3-yl)pyrazin-2-yl)benzonitrile]
IC50 (read-out: IC50): 3 nM
